Measured values as given in ChEMBL document CHEMBL5316364, “Genipin Analogue (G300) Inhibits Adipogenic Differentiation of Human Bone Marrow-Derived Mesenchymal Stem Cells through the Suppression of Adipogenic Promoting Factors” (J Nat Prod, 2023).
Activity calls are given as the source filed them. The rule behind the calls is not given here.

Tests used:
[1] = system: 3T3-L1; assay: Anti-adipogenic activity in mouse 3T3-L1 preadipocytes assessed as decrease in adipocyte numbers at 20 uM measured after 7 days by Oil Red O staining based inverted phase contrast microscopic analysis; assay type: functional, cell-based; conditions: time 7.0 day
[2] = system: Mesenchymal stem cells; assay: Cytotoxicity against human bone marrow derived Mesenchymal stem cells assessed as reduction in cell viability at 1 to 20 uM incubated for 1 to 10 days by MTT assay; assay type: toxicity, cell-based; conditions: dose lower 1 µM, time lower 1 day, dose upper 20 µM, time upper 10 day
[3] = system: Mesenchymal stem cells; assay: Anti-adipogenic activity in human bone marrow derived Mesenchymal stem cells assessed as reduction in adipocyte count at 5 to 20 uM after 21 days by Oil Red O staining based inverted phase contrast microscopic analysis; assay type: functional, cell-based; conditions: dose 5-20 µM, time 21.0 day
[4] = system: Mesenchymal stem cells; assay: Inhibition of lipid droplet accumulation in human bone marrow derived Mesenchymal stem cells at 10 to 20 uM by Oil red o staining based microplate reader analysis; assay type: functional, cell-based; conditions: dose 10-20 µM
[5] = system: Mesenchymal stem cells; assay: Inhibition of lipid droplet accumulation in human bone marrow derived Mesenchymal stem cells at 5 to 20 uM incubated for 21 days by Oil red o staining based microplate reader analysis; assay type: functional, cell-based; conditions: dose 5-20 µM, time 21.0 day
[6] = system: Mesenchymal stem cells; assay: Anti-adipogenic activity against human bone marrow derived Mesenchymal stem cells assessed as downregulation of PPARG mRNA expression at 20 uM measured after 7 days by qRT-PCR analysis; assay type: functional, cell-based; conditions: time 7.0 day
[7] = system: Mesenchymal stem cells; assay: Anti-adipogenic activity against human bone marrow derived Mesenchymal stem cells assessed as downregulation of C/EBPalpha mRNA expression at 20 uM measured after 7 days by qRT-PCR analysis; assay type: functional, cell-based; conditions: time 7.0 day
[8] = system: Mesenchymal stem cells; assay: Anti-adipogenic activity against human bone marrow derived Mesenchymal stem cells assessed as downregulation of C/EBPbeta mRNA expression at 20 uM measured after 7 days by qRT-PCR analysis; assay type: functional, cell-based; conditions: time 7.0 day
[9] = system: Mesenchymal stem cells; assay: Anti-adipogenic activity against human bone marrow derived Mesenchymal stem cells assessed as downregulation of SREBP-1c mRNA expression at 20 uM measured after 7 days by qRT-PCR analysis; assay type: functional, cell-based; conditions: time 7.0 day
[10] = system: Mesenchymal stem cells; assay: Anti-adipogenic activity in human derived bone marrow derived Mesenchymal stem cells assessed as reduction in PPARgamma expression at 20 uM measured after 7 days by Western blot analysis; assay type: functional, cell-based; conditions: time 7.0 day
[11] = system: Mesenchymal stem cells; assay: Anti-adipogenic activity in human derived bone marrow derived Mesenchymal stem cells assessed as downregulation of C/EBPalpha protein expression at 20 uM measured after 7 days by western blot analysis; assay type: functional, cell-based; conditions: time 7.0 day
[12] = system: Mesenchymal stem cells; assay: Anti-adipogenic activity in human derived bone marrow mesenchymal cells assessed as downregulation of FABP4 mRNA expression at 10 to 20 uM measured on day 21 by qRT-PCR analysis; assay type: functional, cell-based; conditions: dose 10-20 µM, time 21.0 day
[13] = system: Mesenchymal stem cells; assay: Anti-adipogenic activity in human derived bone marrow mesenchymal cells assessed as downregulation of LPL mRNA expression at 10 to 20 uM measured on day 21 by qRT-PCR analysis; assay type: functional, cell-based; conditions: dose 10-20 µM, time 21.0 day
[14] = system: Mesenchymal stem cells; assay: Anti-adipogenic activity in human derived bone marrow mesenchymal cells assessed as downregulation of GLUT4 mRNA expression at 10 to 20 uM measured on day 21 by qRT-PCR analysis; assay type: functional, cell-based; conditions: dose 10-20 µM, time 21.0 day
[15] = system: Mesenchymal stem cells; assay: Anti-adipogenic activity in human derived bone marrow mesenchymal stem cells assessed as reduction in adiponectin release measured after 21 days by flow cytometry analysis; assay type: functional, cell-based; conditions: time 21.0 day
[16] = system: Mesenchymal stem cells; assay: Anti-adipogenic activity in human derived bone marrow mesenchymal stem cells assessed as reduction in […] release measured after 21 days by flow cytometry analysis; assay type: functional, cell-based; conditions: time 21.0 day
[17] = system: Mesenchymal stem cells; assay: Anti-adipogenic activity in human derived bone marrow mesenchymal stem cells assessed as reduction in adipsin release measured after 21 days by flow cytometry analysis; assay type: functional, cell-based; conditions: time 21.0 day
[18] = system: Mesenchymal stem cells; assay: Anti-adipogenic activity in human derived bone marrow mesenchymal stem cells assessed as glycerol release at 5 uM incubated for 12 hrs by colorimetric analysis relative to control; assay type: functional
[19] = system: Mesenchymal stem cells; assay: Anti-adipogenic activity in human derived bone marrow mesenchymal stem cells assessed as glycerol release at 10 uM incubated for 12 hrs by colorimetric analysis relative to control; assay type: functional
[20] = system: Mesenchymal stem cells; assay: Anti-adipogenic activity in human derived bone marrow mesenchymal stem cells assessed as glycerol release at 20 uM incubated for 12 hrs by colorimetric analysis relative to control; assay type: functional
[21] = system: Mesenchymal stem cells; assay: Antidiabetic activity in human bone marrow mesenchymal stem cells assessed as glucose uptake by measuring 2-DG6P level at 15 to 20 uM by glucose uptake assay; assay type: functional, cell-based; conditions: dose 15-20 µM
[22] = system: Mesenchymal stem cells; assay: Upregulation of adiponectin level in human bone marrow derived mesenchymal stem cells at 5 to 20 uM measured after 48 hrs by flow cytometric analysis; assay type: functional, cell-based; conditions: dose 5-20 µM
[23] = system: Mesenchymal stem cells; assay: Upregulation of adipsin level in human bone marrow derived mesenchymal stem cells at 5 to 20 uM measured after 48 hrs by flow cytometric analysis; assay type: functional, cell-based; conditions: dose 5-20 µM
[24] = system: Mesenchymal stem cells; assay: Downregulation of RBP4 level in human bone marrow derived mesenchymal stem cells at 5 to 20 uM measured after 48 hrs by flow cytometric analysis; assay type: functional, cell-based; conditions: dose 5-20 µM
[25] = system: Mesenchymal stem cells; assay: Downregulation of IL6 level in human bone marrow derived mesenchymal stem cells at 5 to 20 uM measured after 48 hrs by flow cytometric analysis; assay type: functional, cell-based; conditions: dose 5-20 µM
[26] = system: Mesenchymal stem cells; assay: Downregulation of IL8 level in human bone marrow derived mesenchymal stem cells at 5 to 20 uM measured after 48 hrs by flow cytometric analysis; assay type: functional, cell-based; conditions: dose 5-20 µM
[27] = system: Mesenchymal stem cells; assay: Downregulation of MCP-1 level in human bone marrow derived mesenchymal stem cells at 5 to 20 uM measured after 48 hrs by flow cytometric analysis; assay type: functional, cell-based; conditions: dose 5-20 µM

COC(=O)C1=CO[C@@H](O)[C@@H]2C(CO)=CC[C@H]12
Activity [1]: Active

COC(=O)C1=CO[C@@H](OC)[C@@H]2C(Cn3cc(COCc4ccccc4)nn3)=CC[C@H]12
Activity [1]: Active

COC(=O)C1=CO[C@@H](OC)[C@@H]2C(Cn3cc(CCBr)nn3)=CC[C@H]12
Activity [1]: Active

COC(=O)C1=CO[C@@H](OC)[C@@H]2C(Cn3cc(COc4cc(C=O)ccc4OC)nn3)=CC[C@H]12
Activity [1]: Active

CCCCCCCCCCCCCCCCCCOCc1cn(CC2=CC[C@@H]3C(C(=O)OC)=CO[C@@H](OC)[C@H]23)nn1
Activity [1]: Active

COC(=O)C1=CO[C@@H](OC)[C@@H]2C(Cn3cc(COCCc4ccccc4)nn3)=CC[C@H]12
Activity [1]: Active

COC(=O)C1=CO[C@@H](OC)[C@@H]2C(Cn3cc(COCc4cc(OC)ccc4OC)nn3)=CC[C@H]12
Activity [1]: Active

COC(=O)C1=CO[C@@H](OC)[C@@H]2C(Cn3cc(C(O)(c4ccccc4)c4ccccc4)nn3)=CC[C@H]12
Activity [1]: Active

COC(=O)C1=CO[C@@H](OC)[C@@H]2C(Cn3cc(C4(O)CCCCC4)nn3)=CC[C@H]12
Activity [1]: Active

COC(=O)C1=CO[C@@H](OC)[C@@H]2C(Cn3cc(CCCOC(c4ccccc4)(c4ccccc4)c4ccccc4)nn3)=CC[C@H]12
Activity [1]: Active
Activity [2]: Non-Toxic
Activity [3]: Active
inhibition [4]: Active
inhibition [5]: Active
Activity [6]: Active
Activity [7]: Active
Activity [8]: Active
Activity [9]: Active
Activity [10]: Active
Activity [11]: Active
Activity [12]: Active
Activity [13]: Active
Activity [14]: Active
Activity [15]: Active
Activity [16]: Active
Activity [17]: Active
Activity [18]: 17%
Activity [19]: 25%
Activity [20]: 33%
Activity [21]: Active
Activity [22]: Active
Activity [23]: Active
Activity [24]: Active
Activity [25]: Active
Activity [26]: Active
Activity [27]: Active

COC(=O)C1=CO[C@@H](OC)[C@@H]2C(Cn3cc(COCc4ccc(OC)c(OC)c4)nn3)=CC[C@H]12
Activity [1]: Active

COC(=O)C1=CO[C@@H](OC)[C@@H]2C(Cn3cc(COc4ccc5ccc(=O)oc5c4)nn3)=CC[C@H]12
Activity [1]: Active

COC(=O)C1=CO[C@@H](OC)[C@@H]2C(Cn3cc(-c4ccccc4)nn3)=CC[C@H]12
Activity [1]: Active
